In brackets after ≈: the same amount, converted by molar mass.
What was measured:
[1] = test system: C. neoformans; test: Fungicidal assay; type: cell-based; conditions: 48 hours exposure at 2×, 4× and 8× the MIC, spotted, 30° C. for 2 days
Experimental: To test for fungicidal activity, aliquots of cells were removed after 48 hours of growth in the presence of test compounds at 2×, 4×, and 8× the respective MICs and spotted them on YPD plates. The plates were incubated at 30° C. for 2 days and checked for growth. Growth of cells treated with test compounds was compared to FLC-treated cells, which is known to be fungistatic and to AMB-treated cells, which is known to be fungicidal (Klepser, et al., 1998; Mesa-Arango, et al., 2014).
compounds #54 and #284 were evaluated for fungicidal versus fungistatic activity. This analysis was done in a qualitative assay in parallel with FLC, which is known to be fungistatic (Klepser, et al., 1998) and AMB, which is known to be fungicidal (Mesa-Arango, et al., 2014). The MICs were 3 μM (0.9 μg/mL), 1.5 μM (1.4 μg/mL), 12 μM and 0.31 μM for FLC, AMB, #54 and #284 respectively. (FIGS. 8A & 8B).

[2] = test system: C. neoformans var grubii, KN99; test: Inhibition of C. neoformans growth, limiting dilution assay (MIC); type: cell-based; conditions: for MIC80 / MIC: Cryptococcus neoformans; for MIC80: KN99α, minimal concentration inhibiting 80% of growth relative to vehicle; for inhibition of C. neoformans growth: YNB-02+1% DMSO at 35° C., at 15 and 60 μM
Experimental: Strains and media. All inhibition assays were performed with C. neoformans var grubii, KN99 (serotype A, MATα; kindly provided by Jennifer Lodge). Two clinical strains of C. neoformans var grubii, serotype A, were kindly provided by Tamara Doering and Andre Spec. […] Each assay was done in triplicate and all values are the average of two or more independent assays. The data are presented as the average cell density as a percent of DMSO-only treated cells. […] However, these conditions are unlike conditions encountered by C. neoformans in mammalian infections, where nutrients are limited, and the pH and temperature are higher than in YPD media. The cryptococcal stress response to low glucose and high pH and temperature may alter its susceptibility to the inhibitors. It is also possible that the enzymes targeted by the inhibitors may render the cell temperature sensitive when inhibited. To better mimic growth in mammals, growth was tested without shaking in nutrient-limited media at 35° C. […] However, as the nutrient-limited media and higher temperature is more similar to mammalian cell growth conditions, these conditions were used for all further assays. […] All values were measured at least two times in independent experiments and the average MIC is reported.

[3] = Cytotoxicity in hepatoma cells (MTS); conditions: human, HepDES19 cells, CC50, HepDES19 cells, 72 hours, MTS
Experimental: HepDES19 cells (1.0×10^4 cells per well) were seeded in 96-well plates and incubated in DMEM with 10% fetal bovine serum (FBS) plus 1% penicillin and streptomycin, 1% nonessential amino acids, and 1% glutamine. The compounds were diluted in the medium at concentrations ranging from 0.78 to 100 μM plus 1% DMSO and added to the cells 48 hours after plating, with each concentration tested in triplicate. Cells were incubated with the compound for 72 hours and cytotoxicity was measured using a mitochondrial metabolic assay with MTS (Promega). The data were transformed to log[inhibitor] and fit to a 4-variable slope curve using GraphPad Prism (v6, www.graphpad.com).
Three days later, the MTS reagent was added for 90 minutes prior to terminating the incubation period and reading the OD480.

[4] = test system: KN99α cells; test: Growth inhibition in YPD+1% DMSO at 25° C.; type: cell-based, C. neoformans; conditions: at 60 μM
Experimental: FIGS. 5A & 5B. Inhibition of KN99α cells by β-thujaplicinol and β-thujaplicin under conditions (FIG. 5A) YPD at 25° C. and (FIG. 5B) YNB-02 at 35° C.
An assay was developed that could cheaply and reproducibly measure inhibition of C. neoformans growth using a 96-well format. C. neoformans growth was initially tested in YPD versus YPD+1% DMSO at 25° C. with shaking for 24 and 48 hours. […] However, these conditions are unlike conditions encountered by C. neoformans in mammalian infections, where nutrients are limited, and the pH and temperature are higher than in YPD media. The cryptococcal stress response to low glucose and high pH and temperature may alter its susceptibility to the inhibitors. It is also possible that the enzymes targeted by the inhibitors may render the cell temperature sensitive when inhibited. To better mimic growth in mammals, growth was tested without shaking in nutrient-limited media at 35° C. First, the cell culture media, RPMI-1640+0.4% glucose+1% DMSO (Sigma) as defined by National Committee for Clinical Laboratory Standards (NCCLS) was tested for anti-fungal susceptibility testing. However, the cells grew very poorly under these conditions. […] (FIG. 5A). However, as the nutrient-limited media and higher temperature is more similar to mammalian cell growth conditions, these conditions were used for all further assays.

[5] = test system: clinical strains of C. neoformans var grubii, serotype A; test: MIC in two independent clinical strains; type: cell-based; conditions: Cryptococcus neoformans
Experimental: Strains and media. All inhibition assays were performed with C. neoformans var grubii, KN99 (serotype A, MATα; kindly provided by Jennifer Lodge). Two clinical strains of C. neoformans var grubii, serotype A, were kindly provided by Tamara Doering and Andre Spec. […] Cells were incubated without shaking for 48 hours at 35° C. and cell density was measured at […]. […] Each assay was done in triplicate and all values are the average of two or more independent assays. The data are presented as the average cell density as a percent of DMSO-only treated cells. MICs are reported as the minimal concentration needed to inhibit 80% of C. neoformans growth relative to vehicle-treated controls. Another thirty-seven of the molecules are αHTs (FIG. 4), which have a third contiguous oxygen atom on the troponoid ring.

[6] = test system: KN99α cells; test: Inhibition under capsule-inducing conditions (MIC); type: cell-based; conditions: Cryptococcus neoformans; YNB-02+1% DMSO, 37° C. with 5% CO2, 48 hours
Experimental: KN99α cells were grown overnight in YPD at 30° C. with shaking. […] Capsule was visualized using bright-field microscopy as a halo surrounding the yeast cell through India ink exclusion. The screening was conducted in the nutrient-limited media YNB-02 at 35° C. to mimic some aspects of the growth conditions in humans. […] The untreated cells grown in YNB-02 were able to elaborate the capsule (FIG. 7D) compared to cells grown overnight in YPD at 30° C. (FIG. 7C).

[7] = test system: C. neoformans var grubii, KN99; test: Synergy (checkerboard) assay with Fluconazole or Amphotericin B; type: cell-based; conditions: in combination with either FLC or AMB
Experimental: Each assay was performed in triplicate and all values are the average of two or more independent assays. The fractional inhibitory concentration index (FICI) model is expressed as ΣFIC=FICA+FICB=MICA′/MICA+MICB′/MICB, where MICA, and MICB are the MIC values of agents A and B used alone and MICA′ and MICB′ are the MICs of agents A and B used in combination.

[8] = test system: KN99α cells; test: MIC assays of hydrolysis products of #284 and p-benzoic acid; type: cell-based, C. neoformans; conditions: dilution series 0.19-50 μM, 48 hours at 35° C.
Experimental: FIG. 6. […] Values are mean±standard deviation from three replicates.
The solution was mixed by vortexing until a prominent color change (pale yellow to dark orange) was apparent. This reaction was performed in triplicate. One aliquot of the reaction mixture was stored at room temperature, one at 35° C., and one at 40° C. After 24 hours, the reaction mixtures were neutralized with HCl.
This would release a tropothione, possibly in multiple oxidation states, as well as p-benzoic acid, any of which could potentially act as inhibitors.

[9] = YNB-02+1% DMSO, 35° C., 48 hours
[10] = 48 h, measured alone, 80% of cells inhibited relative to vehicle, run with synergy and fungicidal assays

## C[C@@H]1[C@H](O)[C@@H](C)/C=C/C=C/C=C/C=C/C=C/C=C/C=C/[C@H](O[C@@H]2O[C@H](C)[C@@H](O)[C@H](N)[C@@H]2O)C[C@@H]2O[C@](O)(C[C@@H](O)C[C@@H](O)[C@H](O)CC[C@@H](O)C[C@@H](O)CC(=O)O[C@H]1C)C[C@H](O)[C@H]2C(=O)O [AMB, Amphotericin B]
[1]
  cell growth on YPD plates after drug exposure: no cell growth

## CC(C)c1ccc(O)c(=O)c(O)c1 [Compound 46, β-thujaplicinol]
[2]; [9]
  MIC80: 8 µM (≈ 1.44 µg/mL)
  MIC: ≤ 15 µM
[2]
  inhibition of C. neoformans growth: some inhibition
[3]
  CC50 at 72 h: 23 µM
[4]
  inhibition of C. neoformans growth: almost completely inhibited

## CC(C)c1cccc(=O)c(O)c1 [Compound 47, β-thujaplicin]
[2]; [9]
  MIC80: 21 µM (≈ 3.45 µg/mL)
[2]
  inhibition of C. neoformans growth: some inhibition
[3]
  CC50 at 72 h: 66.5 µM
[4]
  inhibition of C. neoformans growth: almost completely inhibited

## O=c1ccccc(Br)c1O [Compound 54, 3-bromotropolone]
[2]; [10]
  MIC: 12 µM
[2]; [9]
  MIC80: 7 µM (≈ 1.41 µg/mL)
[3]
  CC50 at 72 h: 95 µM
[5]
  MIC: 6 to 12 µM (≈ 1.21 to 2.41 µg/mL)
[6]
  MIC: 6 to 12 µM (≈ 1.21 to 2.41 µg/mL)
[7]
  FIC index: 2
  FIC value: 1

## OC(Cn1cncn1)(Cn1cncn1)c1ccc(F)cc1F [FLC, Fluconazole, reference compound]
[2]; [10]
  MIC: 3 µM
[2]; measured alone, 80% of cells inhibited relative to vehicle, run with synergy and fungicidal assays
  MIC: 0.9 µg/mL
[1]
  cell growth on YPD plates after drug exposure: Significant cell growth

## p-benzoic acid
[8]
  MIC: > 50 µM
